IC50 data for 31 compounds are collected here from ChEMBL document CHEMBL1132393, “Structure-activity relationships of a novel class of Src SH2 inhibitors” (Bioorg Med Chem Lett, 1999).

Structures are written as SMILES.

In general, IC50 refers to the point on the concentration scale where inhibition reaches its midpoint. A low value points to greater potency.

The experiment concerns the target Proto-oncogene tyrosine-protein kinase Src (Homo sapiens, UniProt P12931). The experiment can be described thus: Binding affinity against Src-homology 2 (SRC SH2).

Proto-oncogene tyrosine-protein kinase Src, sequence (P12931 2-536 limits assumed): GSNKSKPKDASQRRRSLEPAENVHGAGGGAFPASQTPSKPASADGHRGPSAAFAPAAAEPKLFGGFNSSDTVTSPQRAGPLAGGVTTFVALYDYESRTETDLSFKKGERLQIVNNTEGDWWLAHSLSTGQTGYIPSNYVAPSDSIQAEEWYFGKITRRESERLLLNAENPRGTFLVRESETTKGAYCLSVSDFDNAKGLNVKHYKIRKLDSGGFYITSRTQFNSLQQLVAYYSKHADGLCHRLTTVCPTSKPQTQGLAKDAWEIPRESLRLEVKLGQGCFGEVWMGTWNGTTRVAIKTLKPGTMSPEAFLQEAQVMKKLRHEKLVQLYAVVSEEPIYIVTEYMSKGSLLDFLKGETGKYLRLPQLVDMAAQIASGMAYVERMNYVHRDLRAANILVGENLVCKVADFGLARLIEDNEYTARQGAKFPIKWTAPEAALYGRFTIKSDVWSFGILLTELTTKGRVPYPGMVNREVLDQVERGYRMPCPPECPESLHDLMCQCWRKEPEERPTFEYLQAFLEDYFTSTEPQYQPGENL

Turning to `CC(=O)N[C@@H](Cc1ccc(OP(=O)(O)O)cc1)C(=O)N[C@@H](Cc1c[nH]c2ccccc12)c1nc(Cc2cccc3ccccc23)no1`, the IC50 was 279 µM. `CC(=O)N[C@@H](Cc1ccc(OP(=O)(O)O)cc1)C(=O)N[C@@H](CCC(=O)O)c1nc(CC2CCCCC2)no1` yielded an IC50 of 29 µM. For `CC(=O)N[C@@H](Cc1ccc(OP(=O)(O)O)cc1)C(=O)N[C@@H](CCC(=O)O)c1nc(CC(C)C)no1` the value was 166 µM. Then `CC(=O)N[C@@H](Cc1ccc(OP(=O)(O)O)cc1)C(=O)N[C@@H](Cc1c[nH]c2ccccc12)c1nc(CC2CCCCC2)no1`, with 62 µM; and `CCCCCCc1noc([C@H](Cc2c[nH]c3ccccc23)NC(=O)[C@H](Cc2ccc(OP(=O)(O)O)cc2)NC(C)=O)n1`, with 16 µM; and `CC(=O)N[C@@H](Cc1ccc(OP(=O)(O)O)cc1)C(=O)N[C@@H](CCC(=O)O)c1nc(Cc2ccccc2)no1`, with 92 µM. `CCCCCc1noc([C@H](CC)NC(=O)[C@H](Cc2ccc(OP(=O)(O)O)cc2)NC(C)=O)n1` displayed an IC50 of 65 µM. This IC50 and that of the compound before are within 1.5-fold of each other. For `CC(=O)N[C@@H](Cc1ccc(OP(=O)(O)O)cc1)C(=O)N[C@@H](Cc1c[nH]c2ccccc12)c1nc(Cc2ccccc2)no1` the value was 25 µM.

Regarding `CC(=O)N[C@@H](Cc1ccc(OP(=O)(O)O)cc1)C(=O)N[C@@H](Cc1c[nH]c2ccccc12)c1nc(CCCC(C)C)no1`, the IC50 was determined as 89 µM. For `CCCCCc1noc([C@H](Cc2c[nH]c3ccccc23)NC(=O)[C@H](Cc2ccc(OP(=O)(O)O)cc2)NC(C)=O)n1` the value was 36 µM; for `CCCCCCc1noc([C@H](CCC(=O)O)NC(=O)[C@H](Cc2ccc(OP(=O)(O)O)cc2)NC(C)=O)n1`, 8 µM. Then `CCCCCCCc1noc([C@H](Cc2c[nH]c3ccccc23)NC(=O)[C@H](Cc2ccc(OP(=O)(O)O)cc2)NC(C)=O)n1`, with 35 µM.

The compound `CCCCCCCc1noc([C@H](CCC(=O)O)NC(=O)[C@H](Cc2ccc(OP(=O)(O)O)cc2)NC(C)=O)n1` yielded an IC50 of 7 µM. For `CC(=O)N[C@@H](Cc1ccc(OP(=O)(O)O)cc1)C(=O)N[C@@H](CCC(=O)O)c1nc(CC2CCCCC2)cs1` the value was 26 µM; for `CC(=O)N[C@@H](Cc1ccc(OP(=O)(O)O)cc1)C(=O)N[C@@H](CCC(N)=O)c1nc(CC2CCCCC2)no1`, 278 µM; for `CCCCc1noc([C@H](CCC(N)=O)NC(=O)[C@H](Cc2ccc(OP(=O)(O)O)cc2)NC(C)=O)n1`, 384 µM.

Compound `CCCCCc1noc([C@H](CCC(=O)O)NC(=O)[C@H](Cc2ccc(OP(=O)(O)O)cc2)NC(C)=O)n1` showed an IC50 of 21 µM.

For the compound `CC(=O)N[C@@H](Cc1ccc(OP(=O)(O)O)cc1)C(=O)N[C@@H](Cc1c[nH]c2ccccc12)c1nc(CCC(C)C)no1`, the half-inhibitory concentration (IC50) is 33 µM. Then `CC(=O)N[C@@H](Cc1ccc(OP(=O)(O)O)cc1)C(=O)N[C@@H](CCC(N)=O)c1nc(CCC(C)C)no1`, with 320 µM. For `CC(=O)N[C@@H](Cc1ccc(OP(=O)(O)O)cc1)C(=O)NCc1nc(CC2CCCCC2)cs1` the value was 483 µM; for `CC[C@H](NC(=O)[C@H](Cc1ccc(OP(=O)(O)O)cc1)NC(C)=O)c1nc(CCC(C)C)no1`, 111 µM. For `CC(=O)N[C@@H](Cc1ccc(OP(=O)(O)O)cc1)C(=O)N[C@@H](CCC(=O)O)c1nc(CCC(C)C)no1` the value was 61 µM; for `CC(=O)N[C@@H](Cc1ccc(OP(=O)(O)O)cc1)C(=O)N[C@@H](CCC(=O)O)c1nc(CCC(C)C)cs1`, 76 µM; for `CC(=O)N[C@@H](Cc1ccc(OP(=O)(O)O)cc1)C(=O)N[C@@H](CCC(=O)O)c1nc(CC(C)C)cs1`, 218 µM. `CCCCCCCc1noc([C@H](CC)NC(=O)[C@H](Cc2ccc(OP(=O)(O)O)cc2)NC(C)=O)n1` registered an IC50 of 22 µM. Then `CC(=O)N[C@@H](Cc1ccc(OP(=O)(O)O)cc1)C(=O)N[C@@H](CCC(=O)O)c1ncc(CC2CCCCC2)s1`, with 16 µM.

`CCCCCCc1cnc([C@H](Cc2c[nH]c3ccccc23)NC(=O)[C@H](Cc2ccc(OP(=O)(O)O)cc2)NC(C)=O)s1` returned an IC50 of 14 µM. The IC50 values of the last two compounds are within 1.5-fold of each other. Then `CCCCCCc1noc([C@H](CCC(N)=O)NC(=O)[C@H](Cc2ccc(OP(=O)(O)O)cc2)NC(C)=O)n1`, with 24 µM; and `CCCCCCc1noc([C@H](CC)NC(=O)[C@H](Cc2ccc(OP(=O)(O)O)cc2)NC(C)=O)n1`, with 25 µM; and `CCCCCCc1cnc([C@H](CC)NC(=O)[C@H](Cc2ccc(OP(=O)(O)O)cc2)NC(C)=O)s1`, with 12 µM. For `CC(=O)N[C@@H](Cc1ccc(OP(=O)(O)O)cc1)C(=O)NCc1nc(CC2CCCCC2)no1` the value was 896 µM.
